IC50 data for 3 molecules are collected here from patent publication US8598179B2, “Pyrazole-carboxamide derivatives as P2Y12 antagonists” (Sanofi, priority 2007, dated 2013).

This test concerns human platelet rich plasma (ADP-induced platelet aggregation). As to the kind of experiment: Inhibition of human platelet aggregation, "Born"-method (single cuvettes). It is filed as cell-based. The conditions noted are these: 0.1 h, aggregation induced by ADP, single use cuvettes, platelet aggregation profiler, 6 minutes at 37° C. How it is done: Inhibition of Human Platelet Aggregation
Alternatively to a binding assay which measures a compound's ability to bind to the P2Y12 receptor, the effect on cellular function was also determined. This ability of the compound was evaluated in two platelet aggregation assays: in 96-well plates and with the “Born”-method using single cuvettes.
Whole blood was collected from healthy volunteers using 20 ml syringes containing 2 ml of buffered Citrate. The anticoagulated whole blood was transferred into 15 ml polypropylene conical tubes (10 ml per tube). The tubes were centrifuged for 15 minutes at 340×g at RT without using the centrifuge brake. This procedure leads to a pellet of cellular components and a supernatant of platelet rich plasma (PRP). The PRP layer was collected from each tube and pooled for each donor. To avoid carry over of cellular components following centrifugation, approximately 5 ml of PRP was left in the tube. The platelet concentration was determined using a Coulter Counter.
The 15 ml tubes containing the pellet of cellular components were centrifuged again for 10 minutes at 1940×g. This pelleted out most particulate blood constituents remaining, leaving a layer of Platelet Poor Plasma (PPP). The PPP was collected for each donor. The PRP layer, previously set aside, was diluted with PPP to a final concentration of approximately 3×E8 platelets/ml with the PPP.
The human platelet aggregation assay is performed in single use cuvettes using the platelet aggregation profiler (PAP-4 or -8, Bio/Data corporation).
In the assay cuvette 4 μl of test compound at 100× final concentration in DMSO is mixed with 392 μl fresh PRP and incubated for 2 minutes at 37° C. with 1.200 rpm stirring. Following that incubation period, 4 μl of 250 μM ADP is added to the reaction mix. […] After that aggregation is measured over 6 minutes at 37° C. with 1.200 rpm stirring. Results of the assay are expressed as % inhibition, and are calculated using maximum aggregation (Tmax) or area under curve (AUC) of the absorbance over 6 minutes. […]
`CCOC(=O)N1CCN(C(=O)[C@H](CCC(=O)O)NC(=O)c2cc(OC3(C(=O)OCC)CCC3)n(-c3ccccc3)n2)CC1` [Example 1, 4-((S)-4-Carboxy-2-{[5-(1-ethoxycarbonyl-cyclobutoxy)-1-phenyl-1H-pyrazole-3-carbonyl]-amino}-butyryl)-piperazine-1-carboxylic acid ethyl ester] returned an IC50 of 2930 nM.

`CCOC(=O)COc1cc(C(=O)N[C@@H](CCC(=O)O)C(=O)N2CCN(C(=O)OCC)CC2)nn1-c1ccccc1` [Example 5, 4-{(S)-4-Carboxy-2-[(5-ethoxycarbonylmethoxy-1-phenyl-1H-pyrazole-3-carbonyl)-amino]-butyryl}-piperazine-1-carboxylic acid ethyl ester]: inhibition was half-maximal at 2480 nM (IC50).

The molecule `CCOC(=O)N1CCN(C(=O)[C@H](CCC(=O)O)NC(=O)c2cc(OCC(=O)C(C)(C)C)n(-c3ccccc3)n2)CC1` [Example 80, 4-((S)-4-Carboxy-2-{[5-(3,3-dimethyl-2-oxo-butoxy)-1-phenyl-1H-pyrazole-3-carbonyl]-amino}-butyryl)-piperazine-1-carboxylic acid ethyl ester] gave a concentration for half-maximal inhibition (IC50) of 2460 nM. The IC50 values of the last two molecules are within 1.5-fold of each other.

The IC50 is the point on the concentration scale where inhibition reaches its midpoint. A higher IC50 goes with weaker potency in that assay.
